In patent US9340590B2 (priority 2011, dated 2016):
Read-outs that look alike come from different tables or passages of the source. Positions of bridges follow the written chain, without caps; N, C: chain ends. Non-standard residues stand in square brackets, D forms with d. Residues, ends and D or L forms follow the SMILES beside them. Lys(Me2) = CN(C)CCCC[C@H](N)C(=O)O; Pra = C#CC[C@H](N)C(=O)O

Legend:
Assay in all cases: cell-based
hNav1.5 [1] = target: T1, hNav1.5 (Homo sapiens, UniProt Q14524)
hNav1.7 [2] = target: T2, hNav1.7 (Homo sapiens, UniProt Q15858); settings: Nav1.7 Use IC50
hNav1.5 [3] = target: T1, hNav1.5; settings: IonWorks Quattro; clamped to −110 mV, depolarized to −10 mV, 5 min after compound; n=2; read-out: IWQ Use Nav1.5
hNav1.7 [4] = target: T2, hNav1.7; format: cell-based
hNav1.3 = hNav1.3 (Homo sapiens, UniProt Q9NY46); settings: IonWorks Quattro; clamped to −110 mV, depolarized to −10 mV, 5 min after compound; n=2; read-out: IWQ Use Nav1.3

T1 sequence (Q14524 whole entry, looked up): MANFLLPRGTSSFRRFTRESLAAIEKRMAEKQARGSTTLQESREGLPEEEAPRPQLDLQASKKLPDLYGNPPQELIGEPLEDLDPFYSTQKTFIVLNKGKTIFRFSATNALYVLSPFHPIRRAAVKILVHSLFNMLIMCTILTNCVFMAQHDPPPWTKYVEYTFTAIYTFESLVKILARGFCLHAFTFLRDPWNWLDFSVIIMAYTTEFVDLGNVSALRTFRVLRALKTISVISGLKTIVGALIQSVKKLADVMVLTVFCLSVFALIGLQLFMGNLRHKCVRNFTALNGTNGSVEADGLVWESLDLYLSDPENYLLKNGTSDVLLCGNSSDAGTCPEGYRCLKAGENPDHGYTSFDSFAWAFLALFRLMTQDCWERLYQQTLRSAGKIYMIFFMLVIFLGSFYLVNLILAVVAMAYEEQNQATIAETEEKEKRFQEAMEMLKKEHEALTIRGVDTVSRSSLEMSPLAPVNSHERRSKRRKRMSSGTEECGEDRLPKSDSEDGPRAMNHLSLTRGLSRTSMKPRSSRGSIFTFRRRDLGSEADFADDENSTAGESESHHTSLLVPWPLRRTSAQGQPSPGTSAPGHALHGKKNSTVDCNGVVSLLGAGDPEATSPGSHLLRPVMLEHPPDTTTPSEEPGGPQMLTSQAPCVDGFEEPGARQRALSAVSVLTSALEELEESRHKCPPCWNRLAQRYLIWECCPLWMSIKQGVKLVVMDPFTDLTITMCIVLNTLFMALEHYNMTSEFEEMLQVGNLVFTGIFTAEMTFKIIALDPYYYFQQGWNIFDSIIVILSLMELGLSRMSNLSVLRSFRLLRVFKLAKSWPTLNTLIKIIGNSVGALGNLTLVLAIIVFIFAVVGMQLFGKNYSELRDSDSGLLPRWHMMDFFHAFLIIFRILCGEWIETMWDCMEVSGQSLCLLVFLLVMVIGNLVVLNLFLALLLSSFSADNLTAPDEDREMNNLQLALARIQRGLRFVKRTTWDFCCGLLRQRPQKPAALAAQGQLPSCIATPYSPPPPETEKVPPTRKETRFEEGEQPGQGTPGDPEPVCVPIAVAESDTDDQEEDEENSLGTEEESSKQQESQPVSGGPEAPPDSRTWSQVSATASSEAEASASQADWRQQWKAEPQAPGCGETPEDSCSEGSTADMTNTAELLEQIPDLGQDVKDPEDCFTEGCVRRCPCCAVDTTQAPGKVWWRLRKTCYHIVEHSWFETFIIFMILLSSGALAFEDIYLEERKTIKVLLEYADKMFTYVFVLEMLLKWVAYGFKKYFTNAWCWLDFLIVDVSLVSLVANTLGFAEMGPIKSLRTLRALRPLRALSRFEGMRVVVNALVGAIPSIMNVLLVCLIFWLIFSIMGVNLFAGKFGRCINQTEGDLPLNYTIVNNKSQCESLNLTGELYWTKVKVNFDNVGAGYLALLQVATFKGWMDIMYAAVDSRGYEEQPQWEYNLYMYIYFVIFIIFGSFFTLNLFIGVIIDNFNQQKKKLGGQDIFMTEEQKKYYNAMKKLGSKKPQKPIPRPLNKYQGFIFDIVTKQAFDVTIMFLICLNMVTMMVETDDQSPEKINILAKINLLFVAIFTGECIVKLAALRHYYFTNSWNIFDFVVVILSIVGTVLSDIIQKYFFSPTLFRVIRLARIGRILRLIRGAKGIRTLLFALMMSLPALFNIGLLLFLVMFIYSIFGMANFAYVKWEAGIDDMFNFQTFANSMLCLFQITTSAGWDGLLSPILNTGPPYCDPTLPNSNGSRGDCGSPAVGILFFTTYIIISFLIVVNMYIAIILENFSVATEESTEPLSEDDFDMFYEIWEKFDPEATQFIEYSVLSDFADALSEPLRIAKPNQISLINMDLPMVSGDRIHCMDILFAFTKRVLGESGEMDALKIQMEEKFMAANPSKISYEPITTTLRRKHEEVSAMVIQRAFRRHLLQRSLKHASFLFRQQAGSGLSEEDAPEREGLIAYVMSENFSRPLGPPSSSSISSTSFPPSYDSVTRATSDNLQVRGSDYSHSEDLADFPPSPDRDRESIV
T2 sequence (Q15858 whole entry, looked up): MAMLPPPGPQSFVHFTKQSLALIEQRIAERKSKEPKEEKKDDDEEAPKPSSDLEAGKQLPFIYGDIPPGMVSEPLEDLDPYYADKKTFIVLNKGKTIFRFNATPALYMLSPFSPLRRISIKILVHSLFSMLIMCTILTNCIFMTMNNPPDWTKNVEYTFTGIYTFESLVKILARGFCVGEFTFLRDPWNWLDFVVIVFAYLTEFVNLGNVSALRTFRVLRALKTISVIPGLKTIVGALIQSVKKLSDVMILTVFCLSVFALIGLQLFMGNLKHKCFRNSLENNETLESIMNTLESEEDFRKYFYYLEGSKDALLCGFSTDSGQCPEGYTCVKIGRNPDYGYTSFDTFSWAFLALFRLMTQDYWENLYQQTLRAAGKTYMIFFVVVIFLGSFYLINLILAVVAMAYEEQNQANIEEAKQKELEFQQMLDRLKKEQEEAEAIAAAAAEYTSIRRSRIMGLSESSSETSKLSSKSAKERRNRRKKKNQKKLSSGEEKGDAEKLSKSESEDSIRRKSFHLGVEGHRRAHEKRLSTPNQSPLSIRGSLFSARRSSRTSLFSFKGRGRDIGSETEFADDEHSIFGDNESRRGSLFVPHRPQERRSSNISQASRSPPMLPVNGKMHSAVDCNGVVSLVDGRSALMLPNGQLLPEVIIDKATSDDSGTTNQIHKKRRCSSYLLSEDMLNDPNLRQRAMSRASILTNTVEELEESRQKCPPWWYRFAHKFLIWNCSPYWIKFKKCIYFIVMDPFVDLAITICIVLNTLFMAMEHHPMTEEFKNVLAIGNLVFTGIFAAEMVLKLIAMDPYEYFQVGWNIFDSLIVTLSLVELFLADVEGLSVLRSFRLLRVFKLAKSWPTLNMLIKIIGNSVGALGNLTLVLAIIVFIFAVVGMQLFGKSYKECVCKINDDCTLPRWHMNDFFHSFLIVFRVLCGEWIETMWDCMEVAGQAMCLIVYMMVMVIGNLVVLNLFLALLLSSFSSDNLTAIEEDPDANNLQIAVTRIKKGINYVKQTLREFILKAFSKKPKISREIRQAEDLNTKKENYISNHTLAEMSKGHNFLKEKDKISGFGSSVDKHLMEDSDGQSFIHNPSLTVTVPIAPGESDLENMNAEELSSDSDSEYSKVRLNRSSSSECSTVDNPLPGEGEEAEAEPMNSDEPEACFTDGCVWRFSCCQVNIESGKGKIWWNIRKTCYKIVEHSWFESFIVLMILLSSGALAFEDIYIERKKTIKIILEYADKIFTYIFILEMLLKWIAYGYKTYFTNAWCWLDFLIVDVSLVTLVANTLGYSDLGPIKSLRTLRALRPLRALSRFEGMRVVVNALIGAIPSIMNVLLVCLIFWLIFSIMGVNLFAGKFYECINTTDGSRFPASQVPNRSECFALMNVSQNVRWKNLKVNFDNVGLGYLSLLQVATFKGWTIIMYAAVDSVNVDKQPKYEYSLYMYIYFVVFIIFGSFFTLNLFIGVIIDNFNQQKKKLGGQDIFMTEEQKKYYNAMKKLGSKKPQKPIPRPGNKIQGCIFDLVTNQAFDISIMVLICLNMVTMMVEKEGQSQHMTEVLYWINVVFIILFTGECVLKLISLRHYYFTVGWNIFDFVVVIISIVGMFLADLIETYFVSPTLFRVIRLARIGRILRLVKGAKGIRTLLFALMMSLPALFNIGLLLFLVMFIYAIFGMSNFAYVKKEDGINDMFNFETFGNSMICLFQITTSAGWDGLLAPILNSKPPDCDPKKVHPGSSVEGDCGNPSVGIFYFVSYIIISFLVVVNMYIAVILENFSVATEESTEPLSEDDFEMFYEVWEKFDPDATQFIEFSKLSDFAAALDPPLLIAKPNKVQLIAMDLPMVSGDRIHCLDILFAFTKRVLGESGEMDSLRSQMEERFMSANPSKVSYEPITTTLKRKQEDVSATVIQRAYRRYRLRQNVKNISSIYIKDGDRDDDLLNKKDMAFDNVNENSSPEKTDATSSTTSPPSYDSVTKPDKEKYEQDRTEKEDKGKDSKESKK

SMILES | IC50 (hNav1.5 [1]) | IC50 (hNav1.7 [2]) | IC50 (hNav1.5 [3]) | IC50 (hNav1.7 [4]) | IC50 (hNav1.3) | IC50 (hNav1.5 [1]; read-out: Nav1.5 Use IC50) | IC50 (hNav1.7 [4]; IonWorks Quattro, clamped to −110 mV, depolarized to −10 mV, 5 min after compound, n=2, read-out: IWQ Use Nav1.7)
CC(C)C[C@@H]1NC(=O)[C@@H](NC(=O)[C@@H](N)CC(=O)O)CSSC[C@@H]2NC(=O)[C@@H]3CSSC[C@@H](C(=O)N[C@@H](CCCCN)C(=O)N[C@@H](Cc4ccc(O)cc4)C(=O)N[C@H](C(=O)N[C@@H](Cc4ccccc4)C(N)=O)C(C)C)NC(=O)[C@H](Cc4c[nH]c5ccccc45)NC(=O)[C@H](CCCCN)NC(=O)[C@H](Cc4c[nH]cn4)NC(=O)[C@H]([C@@H](C)O)NC(=O)[C@H](CCCNC(=N)N)NC(=O)[C@H](CO)NC(=O)[C@H](CSSC[C@H](NC(=O)[C@H](CCCCN)NC(=O)[C@H](CCCNC(=N)N)NC(=O)[C@H](Cc4ccccc4)NC(=O)[C@H](C)NC(=O)CNC1=O)C(=O)N[C@@H](CC(=O)O)C(=O)N1CCC[C@H]1C(=O)N[C@@H](CC(=O)O)C(=O)N[C@@H](CC(N)=O)C(=O)N[C@@H](CC(=O)O)C(=O)N[C@@H](CCCCN)C(=O)N3)NC(=O)[C@H](C(C)C)NC(=O)[C@H](CC(C)C)NC(=O)[C@H](CC(N)=O)NC(=O)[C@@H]1CCCN1C(=O)[C@H](CCCNC(=N)N)NC2=O [[Ala5;Phe6;Asp10]GpTx-1(1-34)] (H-DCLGAFRKCDPDNDKCCRPNLVCSRTHKWCKYVF-NH2; disulfide 2-17, 9-23, 16-30) | > 10 µM | 40 nM |  |  |  |  | 
C#CC[C@@H]1NC(=O)[C@H](CC(=O)O)NC(=O)[C@@H]2CCCN2C(=O)[C@H]([C@@H](C)CC)NC(=O)[C@@H]2CSSC[C@@H]3NC(=O)[C@H](C(C)C)NC(=O)[C@H](CC(C)C)NC(=O)[C@H](CC(N)=O)NC(=O)[C@@H]4CCCN4C(=O)[C@H](CCCNC(=N)N)NC(=O)[C@H](CSSC[C@H](NC(=O)[C@@H](N)CC(=O)O)C(=O)N[C@@H](CC(C)C)C(=O)NCC(=O)N[C@@H](C)C(=O)N[C@@H](CC(C)C)C(=O)N[C@@H](CCCNC(=N)N)C(=O)N[C@@H](CCCCN)C(=O)N2)NC(=O)[C@H](CSSC[C@@H](C(=O)N[C@@H](CCCCN)C(=O)N[C@@H](Cc2ccc(O)cc2)C(=O)N[C@H](C(=O)N[C@@H](Cc2ccccc2)C(N)=O)C(C)C)NC(=O)[C@H](Cc2c[nH]c4ccccc24)NC(=O)[C@H](CCCNC(=N)N)NC(=O)[C@H](Cc2c[nH]cn2)NC(=O)[C@H](CC(C)C)NC(=O)[C@H](CCCNC(=N)N)NC(=O)[C@H](CO)NC3=O)NC(=O)[C@H](CCCCN)NC(=O)[C@H](CC(=O)O)NC1=O [[Ala5;Leu6,26;Pra13;Arg28]GpTx-1(1-34)] (H-DCLGALRKCIPD[Pra]DKCCRPNLVCSRLHRWCKYVF-NH2; disulfide 2-17, 9-23, 16-30) | > 10 µM | 9 nM |  |  |  |  | 
CC[C@H](C)[C@@H]1NC(=O)[C@@H]2CSSC[C@@H]3NC(=O)[C@H](C(C)C)NC(=O)[C@H](CC(C)C)NC(=O)[C@H](CC(N)=O)NC(=O)[C@@H]4CCCN4C(=O)[C@H](CCCNC(=N)N)NC(=O)[C@H](CSSC[C@H](NC(=O)[C@@H](N)CC(=O)O)C(=O)N[C@@H](CC(C)C)C(=O)N[C@@H](CCCNC(=N)N)C(=O)N[C@@H](Cc4ccccc4)C(=O)N[C@@H](CCSC)C(=O)N[C@@H](CCCNC(=N)N)C(=O)N[C@@H](CCCCN)C(=O)N2)NC(=O)[C@H](CSSC[C@@H](C(=O)N[C@@H](CCCCN)C(=O)N[C@@H](Cc2ccc(O)cc2)C(=O)N[C@H](C(=O)N[C@@H](Cc2ccccc2)C(N)=O)C(C)C)NC(=O)[C@H](Cc2c[nH]c4ccccc24)NC(=O)[C@H](CCCCN)NC(=O)[C@H](Cc2cnc[nH]2)NC(=O)[C@H]([C@@H](C)O)NC(=O)[C@H](CCCNC(=N)N)NC(=O)[C@H](CO)NC3=O)NC(=O)[C@H](CCCCN)NC(=O)[C@H](CC(=O)O)NC(=O)[C@H](CC(N)=O)NC(=O)[C@H](CC(=O)O)NC(=O)[C@@H]2CCCN2C1=O [SEQ ID NO: 63] (H-DCLRFMRKCIPDNDKCCRPNLVCSRTHKWCKYVF-NH2; disulfide 2-17, 9-23, 16-30) | 5 µM |  | 20.1 µM | 210 nM | 230 nM |  | 
CC[C@H](C)[C@@H]1NC(=O)[C@@H]2CSSC[C@@H]3NC(=O)[C@H](C(C)C)NC(=O)[C@H](CC(C)C)NC(=O)[C@H](CC(N)=O)NC(=O)[C@@H]4CCCN4C(=O)[C@H](CCCCN(C)C)NC(=O)[C@H](CSSC[C@H](NC(=O)[C@@H](N)CC(=O)O)C(=O)N[C@@H](CC(C)C)C(=O)NCC(=O)N[C@@H](Cc4ccccc4)C(=O)N[C@@H](CCSC)C(=O)N[C@@H](CCCNC(=N)N)C(=O)N[C@@H](CCCCN)C(=O)N2)NC(=O)[C@H](CSSC[C@@H](C(=O)N[C@@H](CCCCN)C(=O)N[C@@H](Cc2ccc(O)cc2)C(=O)N[C@H](C(=O)N[C@@H](Cc2ccccc2)C(N)=O)C(C)C)NC(=O)[C@H](Cc2c[nH]c4ccccc24)NC(=O)[C@H](CCCCN)NC(=O)[C@H](Cc2cnc[nH]2)NC(=O)[C@H]([C@@H](C)O)NC(=O)[C@H](CCCNC(=N)N)NC(=O)[C@H](CO)NC3=O)NC(=O)[C@H](CCCCN)NC(=O)[C@H](CC(=O)O)NC(=O)[C@H](CC(N)=O)NC(=O)[C@H](CC(=O)O)NC(=O)[C@@H]2CCCN2C1=O [[K(Me2)18]GpTx-1(1-34)] (H-DCLGFMRKCIPDNDKCC[Lys(Me2)]PNLVCSRTHKWCKYVF-NH2; disulfide 2-17, 9-23, 16-30) | 10 µM |  |  |  |  |  | 
CC[C@H](C)[C@@H]1NC(=O)[C@@H]2CSSC[C@@H]3NC(=O)[C@H](C(C)C)NC(=O)[C@H](CC(C)C)NC(=O)[C@H](CC(N)=O)NC(=O)[C@@H]4CCCN4C(=O)[C@H](CCCNC(=N)N)NC(=O)[C@H](CSSC[C@H](N)C(=O)N[C@@H](CC(C)C)C(=O)NCC(=O)N[C@@H](Cc4ccccc4)C(=O)N[C@@H](CCSC)C(=O)N[C@@H](CCCNC(=N)N)C(=O)N[C@@H](CCCCN)C(=O)N2)NC(=O)[C@H](CSSC[C@@H](C(=O)N[C@@H](CCCCN)C(=O)N[C@@H](Cc2ccc(O)cc2)C(=O)N[C@H](C(=O)N[C@@H](Cc2ccccc2)C(N)=O)C(C)C)NC(=O)[C@H](Cc2c[nH]c4ccccc24)NC(=O)[C@H](CCCCN)NC(=O)[C@H](Cc2c[nH]cn2)NC(=O)[C@H]([C@@H](C)O)NC(=O)[C@H](CCCNC(=N)N)NC(=O)[C@H](CO)NC3=O)NC(=O)[C@H](CCCCN)NC(=O)[C@H](CC(=O)O)NC(=O)[C@H](CC(N)=O)NC(=O)[C@H](CC(=O)O)NC(=O)[C@@H]2CCCN2C1=O [SEQ ID NO: 108] (H-CLGFMRKCIPDNDKCCRPNLVCSRTHKWCKYVF-NH2; disulfide 1-16, 8-22, 15-29) |  |  |  |  |  | 4.94 µM | 70 nM
CC[C@H](C)[C@@H]1NC(=O)[C@@H]2CSSC[C@@H]3NC(=O)[C@H](C(C)C)NC(=O)[C@H](CC(C)C)NC(=O)[C@H](CC(N)=O)NC(=O)[C@@H]4CCCN4C(=O)[C@H](CCCNC(=N)N)NC(=O)[C@H](CSSC[C@H](NC(=O)[C@@H](N)CC(=O)O)C(=O)N[C@@H](CC(C)C)C(=O)N[C@@H](CCCCN)C(=O)N[C@@H](Cc4ccccc4)C(=O)N[C@@H](CCSC)C(=O)N[C@@H](CCCNC(=N)N)C(=O)N[C@@H](CCCCN)C(=O)N2)NC(=O)[C@H](CSSC[C@@H](C(=O)N[C@@H](CCCCN)C(=O)N[C@@H](Cc2ccc(O)cc2)C(=O)N[C@H](C(=O)N[C@@H](Cc2ccccc2)C(N)=O)C(C)C)NC(=O)[C@H](Cc2c[nH]c4ccccc24)NC(=O)[C@H](CCCCN)NC(=O)[C@H](Cc2cnc[nH]2)NC(=O)[C@H]([C@@H](C)O)NC(=O)[C@H](CCCNC(=N)N)NC(=O)[C@H](CO)NC3=O)NC(=O)[C@H](CCCCN)NC(=O)[C@H](CC(=O)O)NC(=O)[C@H](CC(N)=O)NC(=O)[C@H](CC(=O)O)NC(=O)[C@@H]2CCCN2C1=O [SEQ ID NO: 39] (H-DCLKFMRKCIPDNDKCCRPNLVCSRTHKWCKYVF-NH2; disulfide 2-17, 9-23, 16-30) | 10.6 µM |  | 9.82 µM | 200 nM | 180 nM |  | 
